The results in this text go back to ChEMBL document CHEMBL1201862, “PubChem BioAssay data set” (2004).

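Assay format: 96-well plates, 48-hour exposure. The concentration for 50% growth inhibition is given as GI50.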 Calls of active or inactive are those of the source. No stated cut-off is given here; in the data, active = GI50 up to about 1.1 µM and inactive = higher. Where only a bound is given, the exact number is not on record here.

Some test systems named below: UACC-257; Hs-578T; OVCAR-3; SF-295; SK-OV-3; LOX IMVI; KM12; A498; SNB-19; HOP-62; OVCAR-5; SF-268; TK-10; NCI/ADR-RES; RXF 393; HCT-15; ACHN; HOP-92; OVCAR-4.
Assay in all cases: NCI anticancer screen, dose series, 48 h

Take `S=C(c1c[nH]c2ccccc12)N1CCCCC1`: the GI50 is > 100 µM (inactive) in the assay on UACC-257; > 100 µM (inactive) in the assay on Hs-578T; > 100 µM (inactive) in the assay on OVCAR-3; 62.1 µM (inactive) in the assay with SF-295; > 100 µM (inactive) in the assay with SK-OV-3; > 100 µM (inactive) in the assay with LOX IMVI. The GI50 in the assay with KM12, with A498, in the assay with SNB-19, in the assay on HOP-62, in the assay with OVCAR-5 and with SF-268 was > 100 µM (inactive) each time. Also, the GI50 in the assay on TK-10 is > 100 µM (inactive); in the assay on NCI/ADR-RES, 66.5 µM (inactive); in the assay with RXF 393, 62.5 µM (inactive); with HCT-15 it was 82.2 µM; in the assay with ACHN, > 100 µM (inactive).

`CCOC(=O)C(NNS(=O)(=O)c1ccc(C)cc1)S(=O)(=O)C(F)(F)C(F)(F)C(F)(F)C(F)(F)F` (configuration not stated): the GI50 is 54.7 µM (inactive) in the assay on HOP-92; > 100 µM (inactive) with UACC-257; 97.3 µM (inactive) in the assay with Hs-578T; > 100 µM (inactive) with OVCAR-3; 78.3 µM (inactive) in the assay with SF-295; > 100 µM (inactive) with SK-OV-3. Moreover, the GI50 with LOX IMVI, in the assay with KM12, with A498, in the assay on OVCAR-4, with SNB-19 and in the assay on HOP-62 was > 100 µM (inactive) in each case. The GI50 was > 100 µM (inactive) with OVCAR-5; > 100 µM (inactive) with SF-268; > 100 µM (inactive) in the assay on TK-10; > 100 µM (inactive) in the assay on NCI/ADR-RES; over 100 µM in the assay on HCT-15; > 100 µM (inactive) in the assay on ACHN.

In the case of `CC1(C)OCC2OC3(c4nc(C#N)c(N)o4)OC(C)(C)OC3C2O1` (configuration not stated), the GI50 with HOP-92, with UACC-257, with Hs-578T, in the assay on OVCAR-3, in the assay on SF-295 and with SK-OV-3 was > 100 µM (inactive) each time. Besides, the GI50 in the assay with LOX IMVI, with KM12, with A498, in the assay with OVCAR-4, in the assay with SNB-19 and with HOP-62 was > 100 µM (inactive) throughout. Besides, the GI50 in the assay with OVCAR-5 was > 100 µM (inactive); with SF-268, > 100 µM (inactive); in the assay with TK-10 it was > 100 µM (inactive); in the assay with NCI/ADR-RES, > 100 µM (inactive); in the assay on HCT-15, over 100 µM; in the assay on ACHN, > 100 µM (inactive).

As to `CCOC(=O)c1c2c(n(Cc3ccccc3)c1C)C(=O)C(=O)c1ccccc1-2`, the GI50 with HOP-92 was 0.802 µM (active); in the assay with UACC-257, 0.0989 µM (active); with Hs-578T it was 0.925 µM (active); in the assay on OVCAR-3, 0.0615 µM (active); in the assay with SF-295 it was 0.497 µM (active); in the assay on SK-OV-3 it was 0.61 µM (active). Also, the GI50 was 0.174 µM (active) in the assay on LOX IMVI; 0.574 µM (active) in the assay with KM12; 0.0794 µM (active) in the assay on OVCAR-4; 0.315 µM (active) with SNB-19; 0.238 µM (active) in the assay with HOP-62; 0.541 µM (active) with OVCAR-5. Also, the GI50 was 0.415 µM (active) with SF-268; 0.64 µM (active) in the assay on TK-10; 0.466 µM (active) with NCI/ADR-RES; 0.703 µM (active) with RXF 393; 0.366 µM with HCT-15; 0.275 µM (active) in the assay with ACHN.

In the case of `Clc1c(Cl)c(Cl)c2nn(C3CCCO3)nc2c1Cl` (configuration not stated), the GI50 with UACC-257 was 72.6 µM (inactive); in the assay with Hs-578T, 11.7 µM (inactive); with OVCAR-3 it was 43 µM (inactive); in the assay with SF-295 it was 39.4 µM (inactive); in the assay on SK-OV-3, > 100 µM (inactive); with A498, > 100 µM (inactive). Moreover, the GI50 with SNB-19 was 26.7 µM (inactive); in the assay with HOP-62, 28.1 µM (inactive); in the assay on OVCAR-5, > 100 µM (inactive); with SF-268, 46.6 µM (inactive); with TK-10 it was 69.8 µM (inactive); in the assay with NCI/ADR-RES it was 42.8 µM (inactive). For the same compound, in the assay with RXF 393, the GI50 was > 100 µM (inactive).

With `COc1ccc(C(=O)c2c(-c3ccccc3NC(=O)C(F)(F)F)[nH]c3ccccc23)cc1`, the GI50 is 12.4 µM (inactive) in the assay on HOP-92; 15.6 µM (inactive) in the assay on UACC-257; 18.1 µM (inactive) in the assay with Hs-578T; 3.83 µM (inactive) in the assay on OVCAR-3; 12.1 µM (inactive) in the assay on SF-295; 14.6 µM (inactive) in the assay with SK-OV-3. The GI50 is 4.35 µM (inactive) in the assay with LOX IMVI; 3.88 µM (inactive) in the assay with KM12; 2.17 µM (inactive) with A498; 4.59 µM (inactive) with OVCAR-4; 6.37 µM (inactive) with SNB-19; 9.16 µM (inactive) with HOP-62. The GI50 in the assay on OVCAR-5 is 12.5 µM (inactive); in the assay with SF-268 it was 12.8 µM (inactive); with TK-10, 11.6 µM (inactive); in the assay on NCI/ADR-RES it was 8.28 µM (inactive); with HCT-15, 4.98 µM; in the assay with ACHN, 3.16 µM (inactive).

Consider `O=C1CCC[C@H]2O[C@@H](COCc3ccccc3)C[C@@H]12`, for which the GI50 in the assay with HOP-92, in the assay with UACC-257, with Hs-578T, with OVCAR-3, in the assay with SF-295 and with SK-OV-3 was > 100 µM (inactive) each time. Further, the GI50 with KM12, with A498, with OVCAR-4, in the assay with SNB-19, in the assay on HOP-62 and with OVCAR-5 was > 100 µM (inactive) each time. The GI50 is > 100 µM (inactive) in the assay on SF-268; > 100 µM (inactive) with TK-10; > 100 µM (inactive) with NCI/ADR-RES; over 100 µM in the assay on HCT-15; > 100 µM (inactive) with ACHN.

As for `O=C(CCCN1CCC2(CC1)NC(=O)c1ccccc1O2)c1ccc(F)cc1`, the GI50 was > 100 µM (inactive) in the assay with HOP-92; 55.5 µM (inactive) with UACC-257; 96.8 µM (inactive) in the assay with Hs-578T; > 100 µM (inactive) with OVCAR-3; > 100 µM (inactive) in the assay with SF-295; > 100 µM (inactive) in the assay on SK-OV-3. Besides, the GI50 in the assay on LOX IMVI was 80 µM (inactive); in the assay with KM12 it was > 100 µM (inactive); with OVCAR-4, 91 µM (inactive); in the assay on HOP-62 it was > 100 µM (inactive); with OVCAR-5, 87.1 µM (inactive); in the assay on SF-268, > 100 µM (inactive). The GI50 with TK-10 was 81.7 µM (inactive); with NCI/ADR-RES, > 100 µM (inactive); with RXF 393, 64.7 µM (inactive); with HCT-15, over 100 µM; in the assay on ACHN it was > 100 µM (inactive).

Take `Cc1cnc2c(c1)C(=O)N(c1ccc([N+](=O)[O-])cc1)S2(=O)=O`: the GI50 was > 100 µM (inactive) with HOP-92; > 100 µM (inactive) in the assay with UACC-257; 38.1 µM (inactive) with Hs-578T; > 100 µM (inactive) in the assay with OVCAR-3; 82.8 µM (inactive) with SF-295; > 100 µM (inactive) with SK-OV-3. Further, the GI50 was 73.5 µM (inactive) in the assay on LOX IMVI; > 100 µM (inactive) in the assay on KM12; 68.4 µM (inactive) in the assay with A498; 78 µM (inactive) in the assay on OVCAR-4; 56.2 µM (inactive) with SNB-19; > 100 µM (inactive) with HOP-62. Moreover, the GI50 in the assay with OVCAR-5 is > 100 µM (inactive); in the assay on SF-268 it was 77.8 µM (inactive); in the assay on TK-10 it was > 100 µM (inactive); with NCI/ADR-RES it was 74.3 µM (inactive); with HCT-15, 66.1 µM; in the assay on ACHN, > 100 µM (inactive).

As for `COC(=O)c1cc2c(o1)Sc1ccccc1NC2=O`, the GI50 is > 100 µM (inactive) in the assay with HOP-92; > 100 µM (inactive) in the assay with UACC-257; 27.7 µM (inactive) in the assay with Hs-578T; > 100 µM (inactive) in the assay on OVCAR-3; > 100 µM (inactive) in the assay on SF-295; > 100 µM (inactive) with SK-OV-3. Moreover, the GI50 was > 100 µM (inactive) in the assay with LOX IMVI; > 100 µM (inactive) in the assay on KM12; > 100 µM (inactive) in the assay with A498; > 100 µM (inactive) in the assay with OVCAR-4; 35.9 µM (inactive) in the assay with SNB-19; 52.1 µM (inactive) in the assay on HOP-62. Moreover, the GI50 was > 100 µM (inactive) with OVCAR-5; 31.8 µM (inactive) in the assay on SF-268; > 100 µM (inactive) in the assay on TK-10; > 100 µM (inactive) in the assay on NCI/ADR-RES; over 100 µM in the assay with HCT-15; 27.1 µM (inactive) in the assay on ACHN.

With `N#C/C(=C\c1ccc(Cl)cc1)c1nc(-c2cc3ccccc3oc2=O)cs1`, the GI50 is 15.7 µM (inactive) with HOP-92; 47.6 µM (inactive) in the assay with UACC-257; 8.87 µM (inactive) with Hs-578T; 44.4 µM (inactive) with SF-295; 84.5 µM (inactive) with SK-OV-3; 59.6 µM (inactive) in the assay on LOX IMVI. The GI50 in the assay with KM12 was 74.1 µM (inactive); in the assay on OVCAR-4 it was 33.5 µM (inactive); in the assay on SNB-19 it was 43.6 µM (inactive); in the assay with HOP-62 it was 24.8 µM (inactive); in the assay on OVCAR-5, > 100 µM (inactive); in the assay on SF-268, 34.8 µM (inactive). The GI50 in the assay with TK-10 is 26.9 µM (inactive); in the assay on NCI/ADR-RES, 39.6 µM (inactive); in the assay on RXF 393 it was 83 µM (inactive); with HCT-15, over 100 µM; in the assay with ACHN, 38.2 µM (inactive).

As for `C[n+]1cn(C2=C([N-]S(=O)(=O)c3ccccc3)C(=O)c3ccccc3C2=O)c2ccccc21`, the GI50 in the assay with HOP-92 is 42.1 µM (inactive); with UACC-257, 19.4 µM (inactive); in the assay on Hs-578T, 41.9 µM (inactive); in the assay on OVCAR-3, 3.06 µM (inactive); in the assay on SF-295 it was 61.4 µM (inactive); with SK-OV-3 it was > 100 µM (inactive). The GI50 in the assay on LOX IMVI is 12.7 µM (inactive); in the assay with KM12, 15.9 µM (inactive); with OVCAR-4 it was 1.59 µM (inactive); in the assay on SNB-19, 19.3 µM (inactive); in the assay with HOP-62 it was 47.9 µM (inactive); in the assay with OVCAR-5, > 100 µM (inactive). Further, the GI50 with SF-268 was 31.6 µM (inactive); in the assay with TK-10 it was 20.8 µM (inactive); with NCI/ADR-RES it was > 100 µM (inactive); with RXF 393, 20.3 µM (inactive); with HCT-15, over 100 µM; with ACHN it was > 100 µM (inactive).
